Reference: patent US8378112B2, “Glycyrrhetinic acid derivative and use thereof” (INI Corporation, priority 2008, dated 2013)

Tests used:
mice = format: in vivo; conditions: intraperitoneal injection of 200 and 1000 mg/kg body weight
C57BL/6J mice = experiment: Hippocampal glutamate concentration determination (microdialysis, LPS stimulus); format: in vivo, mouse; conditions: 20 mg/kg intraperitoneal simultaneously with 10 μg/2 μl LPS stimulus; FIG. 13
Protocol: A microdialysis catheter was indwelled stereotaxically (in place) into the hippocampus of C57BL/6J mice (8 weeks of age, female, n=5 to 7). After settlement for 48 hours, the determination of the hippocampal glutamate with time was started using high-speed liquid chromatography (HPLC, HITEC-500 GAD, made by Eicom Corp. A stimulus was given by administering 10 μg/2 μl of lipopolysaccharide (LPS) through said catheter, along with an intraperitoneal injection of 20 mg/kg body weight CBX or Compound B simultaneously with the LPS stimulus administration, for a pharmacological efficacy assessment. The hippocampal glutamate concentration was quantified as a % value relative to the average value thereof from 120 minutes to 60 minutes before the stimulus was given to each individual.

[1] = system: Mouse cerebral cortex primary neuronal cells; experiment: Cell death of neuronal cells cultured with microglia-conditioned medium (propidium iodide, TUNEL); format: cell-based; conditions: microglia conditioned medium with LPS and compound at 1, 10, 100 μM; FIG. 6
Protocol: (§1) Next, Compound A and Compound B were checked as to their inhibitory effect on glutamate production in activated microglia. That is, mouse primary microglia were isolated from primary mixed glial cell cultures, prepared from neonatal C57BL/6 mice brains by the “shaking off” method on the 14th culture day or later (Suzumura, A. et al J. Neuroimmunol. 15, 263-278 1987). Mouse cerebral cortex primary neuronal cells were prepared from the cerebral cortices of C57BL/6J mice at embryonic day 17, and were plated on polyethyleneimine-coated cover glasses, and were used at culture day 10-13 (Takeuchi, H. et al. J. Biol. Chem. 280, 10444-10454, 2005.)
Using the culture system of neuronal cells utilizing a microglia conditioned medium, the neuronal cell damage by activated microglia was analyzed with time by the following methods (Takeuchi, H. et al. J. Biol. Chem. 280, 10444-10454, 2005.) Namely, 1 μg/ml lipopolysaccharide (LPS) and Compound A, Compound B, and carbenoxolone (CBX) at each concentration thereof (1 μM, 10 μM and 100 μM as the final concentrations) were added to a microglia culture (about 5×10^4 cells/well, a neuronal culture medium, (made by Sumitomo Bakelite Co., Ltd)) followed by incubating under 100% humidity and 5% CO2 for 24 hours. For a control, except for not adding Compound A or Compound B, microglia were incubated in a similar manner (LPS). […]

LPS-activated microglia = experiment: Inhibitory effect on glutamate production by activated microglia (glutamate in neuronal medium cultured with microglia conditioned medium); format: cell-based, mouse; conditions: for glutamate concentration in the neuron culture media: microglia cultured with 1 μg/ml LPS and compound at 1, 10, 100 μM for 24 hours
Protocol: as §1
Using the culture system of neuronal cells utilizing a microglia conditioned medium, the neuronal cell damage by activated microglia was analyzed with time by the following methods (Takeuchi, H. et al. J. Biol. Chem. 280, 10444-10454, 2005.) Namely, 1 μg/ml lipopolysaccharide (LPS) and Compound A, Compound B, and carbenoxolone (CBX) at each concentration thereof (1 μM, 10 μM and 100 μM as the final concentrations) were added to a microglia culture (about 5×10^4 cells/well, a neuronal culture medium, (made by Sumitomo Bakelite Co., Ltd)) followed by incubating under 100% humidity and 5% CO2 for 24 hours. For a control, except for not adding Compound A or Compound B, microglia were incubated in a similar manner (LPS).
Each of the activated microglia conditioned media, 500 μl, 24 hrs after the administration, was added to neuronal cells (5×10^4 cells/well) in a 24-well plate, and the neuronal cells were cultured at 37° C. under 100% humidity and 5% CO2. The non-activated microglia conditioned medium was also added to neuronal cells to serve as a control (NT). 24 hours after the start of culturing, the amounts of glutamate and neuronal cell death in the conditioned medium were analyzed.
Determination of glutamate was performed by colorimetry; and neuronal cell death was assessed by the dye-exclusion method with propidium iodide under a fluorescence microscope and the terminal deoxynucleotidyl transferase-mediated […] (TUNEL) staining.

[2] = system: human superoxide dismutase 1 (SOD1) (G93A) mutant transgenic mouse; experiment: Survival extension effect in an acute-onset ALS model mouse; format: in vivo; conditions: 20 mg/kg intraperitoneal 3 times a week from 7-8 weeks of age; vs PBS, p<0.0001; FIG. 8
Protocol: The assessment of drug efficacy at different Compound B concentrations was conducted using, as an animal model of neurodegenerative diseases, a human superoxide dismutase 1 (SOD1) (G93A) mutant transgenic mouse, which is widely used as an acute-onset model of amyotrophic lateral sclerosis (ALS).
(§2) Starting at 7-8-weeks of age, which is considered to be an early ALS onset period, they were intraperitoneally administered with 5, 10, and 20 mg/kg body weight of the novel gap junction inhibitor (Compound B) or the same volume of physiological saline (PBS group) 3 times a week. The survival analysis was performed using the Kaplan-Meier method.

[3] = system: human superoxide dismutase 1 (SOD1) G93A mutant transgenic mouse; experiment: Survival extension effect in an ALS model mouse; format: in vivo; conditions: 20 mg/kg intraperitoneal 3 times a week from 6-7 weeks of age; vs PBS, p<0.0002; FIG. 7
Protocol: The assessment of drug efficacy was conducted using, as an animal model of neurodegenerative diseases, the human superoxide dismutase 1 (SOD1) G93A mutant transgenic mouse, which is widely used as a model of amyotrophic lateral sclerosis (ALS). Said transgenic mice were procured from Jackson Laboratory, USA.
as §2, with “at 6-7-weeks” for “at 7-8-weeks”, “with” for “with 5, 10, and”, “of Compound B, which is a” for “of the”, “junction inhibitor, CBX,” for “junction inhibitor (Compound B)”

[4] = system: APP/PS1 mutant double transgenic mouse; experiment: Fear conditioned learning test in Alzheimer's disease model mouse; format: in vivo; conditions: FIG. 11
Protocol: (§3) The assessment of drug efficacy of Compound B was conducted using, as an animal model of neurodegenerative diseases, the human amyloid precursor protein/human presenilin-1 (APP/PS1) mutant double transgenic mouse, which is widely used as an Alzheimer's disease model mouse.
(§4) Starting at 9 months of age, which is considered to be an intermediate onset period, they were intraperitoneally administered with 10 and 20 mg/kg body weight of Compound B or the same volume of physiological saline (PBS group) 3 times a week. The control group was a wild type mouse (G57BL/6J) of the same age. Behavioral analysis was performed using the following three types of behavior experiments.
(2) Fear conditioned learning test: Associative learning was assessed using a fear conditioned learning test (Mouri et al., FASEB J. 21, 2135-2148, 2007; Nagai et al., FASEB J. 17, 50-52, and 2003). The mice were placed in a transparent acrylic cage with a stainless steel grid installed therein and were subjected to a 20 second tone stimulus (80 dB), and then further to an electric stimulus (0.6 mA). A set of this combination stimulus was repeated 4 times with 15 second intervals, thereby causing fear conditioning. A contextual dependency test and a tone stimulus dependency test were carried out 24 hours after the fear conditioning. For the former, mice were placed in the […] acrylic cage with a grid where the fear conditioning took place to determine their freezing behavior for two minutes under a context of giving no tone and no electric stimuli. For the latter, mice were placed in a black acrylic cage having wood chips on the floor thereof, to determine their freezing behavior for 1 minute when given a continuous tone stimulus. The results were expressed respectively in terms of a percentage (%) of the freezing behavior time relative to the total time for determination.

[5] = system: APP/PS1 mutant double transgenic mouse; experiment: Morris water maze test in Alzheimer's disease model mouse; format: in vivo; conditions: FIG. 12
Protocol: as §3, §4
(3) Morris water maze test: Spatial recognition memory was evaluated using the Morris water maze test (Mouri et al. and FASEB J. 21 2135-2148 2007; Miyamoto et al; J. Neurosci. 25, 1826-1835 2005). A 60 second trial was conducted 3 times a day to determine the swimming time (escape latency) and swimming distance (distance moved) from a different start position to a fixed platform. This was performed for seven days in row; on the eighth day, a probe test was performed with the platform removed. The Probe test involved dividing the water maze into 4 regions consisting of Target (Platform), Right, Opposite, and Left and determining the ratios of the regions in which they swam over 60 seconds. The items to be determined were determined using the SMART system (Panlab, Barcelona, Spain).

[6] = system: APP/PS1 mutant double transgenic mouse; experiment: Novel object exploration test in Alzheimer's disease model mouse; format: in vivo; conditions: 10 and 20 mg/kg intraperitoneal 3 times a week; FIG. 10
Protocol: as §3, §4
(1) Novel object exploration test: After the mice were habituated for 3 days (10 minutes/day) in an acrylic experiment apparatus, they were subjected to training. The raining consisted of placing two different objects in the apparatus and they were allowed to freely explore for 10 minutes. 24 hours after the training, Retention was carried out. The Retention consisted of replacing one of the two objects which had been placed in the apparatus during the training with a novel object and allowing the mice to freely explore for 5 minutes. The times spent exploring (touching, sniffing behavior and the like) the two objects were determined respectively. […]

[7] = 10 and 20 mg/kg intraperitoneal 3 times a week

Row | Compound | deaths after acute dosing (mice) | inhibitory effect on the rise in hippocampal glutamate (C57BL/6J mice) | neuronal cell death (%) [1] | glutamate concentration in the neuron culture media (LPS-activated microglia; FIG. 5) | extending survival, on average [2] | extending survival, on average [3] | freezing behavior time, tone stimulus dependency test ([4]; 20 mg/kg administered group) | freezing behavior time, contextual dependency test [4, 7] | freezing behavior time, tone stimulus dependency test [4, 7] | distance swum ([5]; 10 mg/kg, training day 1) | distance swum ([5]; 10 mg/kg, training day 5-7) | distance swum ([5]; 20 mg/kg, training day 4-7) | swimming time ([5]; 20 mg/kg, training day 4-7) | swimming time in the target region (Probe test) ([5]; Compound B administered groups, day 8 probe test) | novel object exploratory preference [6] | glutamate release inhibition (LPS-activated microglia; 100 μM, LPS-activated microglia, FIG. 5) | inhibition of glutamate release in LPS-activated microglia, comparison of compounds (LPS-activated microglia; LPS-activated microglia)
1 | CC1(C)[C@@H](OC(=O)CCC(=O)O)CC[C@]2(C)[C@H]3C(=O)C=C4[C@@H]5C[C@@](C)(C(=O)O)CC[C@]5(C)CC[C@@]4(C)[C@]3(C)CC[C@@H]12 [CBX, carbenoxolone, reference compound] | all mice among the CBX administered group died within 24 hours | no inhibitory effect | – | – | – | – | – | – | – | – | – | – | – | – | – | – | –
2 | CC1(C)[C@@H](OC(=O)c2cccnc2)CC[C@]2(C)[C@H]3C(=O)C=C4[C@@H]5C[C@@](C)(C(=O)O)CC[C@]5(C)CC[C@@]4(C)[C@]3(C)CC[C@@H]12 [Compound A] | – | – | inhibited in a concentration-dependent manner | fell in accordance with the concentration of these compounds | – | – | – | – | – | – | – | – | – | – | – | – | –
3 | C[n+]1cccc(C(=O)O[C@H]2CC[C@]3(C)[C@H]4C(=O)C=C5[C@@H]6C[C@@](C)(C(=O)O)CC[C@]6(C)CC[C@@]5(C)[C@]4(C)CC[C@H]3C2(C)C)c1 [Compound B] | – | significant inhibitory effect | inhibited in a concentration-dependent manner | fell in accordance with the concentration of these compounds | about 2 weeks | about 14 days | significant moderation effect | significantly moderated the observed reduction in freezing behavior time | dose-dependent increase in the freezing behavior time | about the same as that of the PBS administered group | fell significantly | significant reduction | significant reduction | significantly increased | significantly greater than the PBS administered group | comparable to that of the non-stimulated microglia | notably more effective than Compound A
